Experiments:
Format in all cases: in vivo
[1] = system: Tetranychus urticae; assay: Tetranychus urticae test (OP-resistent, dip application); conditions: bush beans dipped
Source text: (§1) The expected activity for a given combination of two active compounds can be calculated according to S. R. Colby, Weeds 15 (1967), 20-22) as follows:
(§2) If • X is the kill rate, expressed in % of the untreated control, when employing active compound A at an application rate of m g/ha or in a concentration of m ppm, • Y is the kill rate, expressed in % of the untreated control, when employing active compound B at an application rate of n g/ha or in a concentration of n ppm and • E is the kill rate, expressed in % of the untreated control, when employing active compounds A and B at application rates of m and n g/ha or in a concentration of m and n ppm, then
(§3) If the actual insecticidal kill rate is higher than the calculated one, the kill rates of the combination are superadditive, i.e. a synergistic effect is present. In this case, the kill rate that is actually observed has to be higher than the value, calculated using the formula above, for the expected kill rate (E).
To produce a suitable preparation of active compound, 1 part by weight of active compound is mixed with the stated amounts of solvent and emulsifier, and the concentrate is diluted with water to the desired concentrations. […]
After the desired period of time, the kill in % is determined. […]

[2] = system: Myzus persicae; assay: Myzus persicae test (cabbage leaves, dip); conditions: cabbage leaves dipped; for Kill rate in % after 1 d, found: 4 ppm
Source text: as §1, §2, §3
(§4) To produce a suitable preparation of active compound, 1 part by weight of active compound is mixed with the stated amounts of solvent and emulsifier, and the concentrate is diluted with emulsifier-containing water to the desired concentration.
Cabbage leaves (Brassica oleracea) which are heavily infested by the green peach aphid (Myzus persicae) are treated by being dipped into the preparation of active compound of the desired concentration.
After the desired period of time, the kill in % is determined. 100% means that all aphids have been killed; 0% means that none of the aphids have been killed. The determined kill rates are entered into Colby's formula (see page 71).

[3] = system: Aphis gossypii; assay: Aphis gossypii test (cotton leaves, dip); conditions: cotton leaves dipped
Source text: as §1, §2, §3, §4
Cotton leaves (Gossypium hirsutum) heavily infested by the cotton aphid (Aphis gossypii) are treated by being dipped into the preparation of active compound of the desired concentration.
After the desired period of time, the kill in % is determined 100% means that all aphids have been killed; 0% means that none of the aphids have been killed. The determined kill rates are entered into Colby's formula (see page 71).

CNC(=O)c1cc(C#N)cc(C)c1NC(=O)c1cc(Br)nn1-c1ncccc1Cl [compound (5)]
Kill rate in % after 7 d, found ([1]; 0.16 ppm): 0% | Kill rate in % after 6 d, found ([2]; 0.16 ppm): 5% | Kill rate in % after 1 d, found [2]: 10% | Kill rate in % after 6 d, found ([3]; 0.8 ppm): 45%

Cc1nn(C)c(/C(OC(=O)C(C)(C)C)=C(\C#N)c2ccc(C(C)(C)C)cc2)c1C [cyenopyrafen]
Kill rate in % after 1 d, found [2]: 0%

COCCOC(=O)C(C#N)(C(=O)c1ccccc1C(F)(F)F)c1ccc(C(C)(C)C)cc1 (stereo not drawn) [cyflumetofen]
Kill rate in % after 6 d, found ([3]; 0.16 ppm): 0%

CCOC(=O)OC1=C(c2cc(C)ccc2C)C(=O)N[C@]12CC[C@@H](OC)CC2 [spirotetramat]
Kill rate in % after 7 d, found ([1]; 0.8 ppm): 25% | Kill rate in % after 6 d, found ([2]; 0.8 ppm): 10% | Kill rate in % after 6 d, found ([3]; 4 ppm): 15%

Reference: patent US8993480B2, “Active ingredient combinations with insecticidal properties” (Bayer CropScience AG, priority 2006, dated 2015)
